{"source": "PubChem BioAssay AID1963870", "about": "(Molecular Pharmacology Branch, DTP, NCI, 2024);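 note: drug exposure lasted seven days after spheroids formed for three days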;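 for viability, T/C: percent of DMSO vehicle control viability which is 100%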", "test_system": "292921-168-R-J2-PDC KRAS tumor spheroid viability", "experiment": "Anticancer human tumor 292921-168-R-J2-PDC patient-derived pancreatic carcinoma cell line growth inhibition [KRAS2]", "conditions": "spheroids with HUVEC and MSC; for IC50: curve of first compound; for viability, T/C: stronger effect = lower value", "in_short": "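Combination screen of spheroid viability in tumor-cell co-cultures with endothelial (HUVEC) and mesenchymal stem cell stroma. Each agent was tested in half-log dilutions, topping at clinical Cmax or at 10 microM without a known Cmax.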", "data": [{"smiles": "CC(C)n1nc(-c2ccc3oc(N)nc3c2)c2c(N)ncnc21", "note": "+ CC1OCC2(CCN(c3cnc(Sc4ccnc(N)c4Cl)c(N)n3)CC2)C1N", "values": [{"measurement": "IC50", "setting": "second compound 0.1 µM", "value": 1.06, "unit": "nM"}, {"measurement": "IC50", "setting": "second compound 0.316 µM", "value": "< 0.316", "unit": "nM"}, {"measurement": "IC50", "setting": "second compound 1 µM", "value": "< 0.316", "unit": "nM"}, {"measurement": "IC50", "setting": "second compound 3.16 µM", "value": "< 0.316", "unit": "nM"}, {"measurement": "IC50", "setting": "second compound 10 µM", "value": "< 0.316", "unit": "nM"}, {"measurement": "viability, T/C", "setting": "second compound 0.1 µM, first compound 0.000316 µM", "value": 66.5, "unit": "%"}, {"measurement": "viability, T/C", "setting": "second compound 0.1 µM, first compound 0.001 µM", "value": 51.4, "unit": "%"}, {"measurement": "viability, T/C", "setting": "second compound 0.1 µM, first compound 0.00316 µM", "value": 35.4, "unit": "%"}, {"measurement": "viability, T/C", "setting": "second compound 0.1 µM, first compound 0.01 µM", "value": 29.4, "unit": "%"}, {"measurement": "viability, T/C", "setting": "second compound 0.1 µM, first compound 0.0316 µM", "value": 20.8, "unit": "%"}, {"measurement": "viability, T/C", "setting": "second compound 0.1 µM, first compound 0.1 µM", "value": 19.1, "unit": "%"}, {"measurement": "viability, T/C", "setting": "second compound 0.316 µM, first compound 0.000316 µM", "value": 48.7, "unit": "%"}, {"measurement": "viability, T/C", "setting": "second compound 0.316 µM, first compound 0.001 µM", "value": 38.5, "unit": "%"}, {"measurement": "viability, T/C", "setting": "second compound 0.316 µM, first compound 0.00316 µM", "value": 30.5, "unit": "%"}, {"measurement": "viability, T/C", "setting": "second compound 0.316 µM, first compound 0.01 µM", "value": 21.6, "unit": "%"}, {"measurement": "viability, T/C", "setting": "second compound 0.316 µM, first compound 0.0316 µM", "value": 18.4, "unit": "%"}, {"measurement": "viability, T/C", "setting": "second compound 0.316 µM, first compound 0.1 µM", "value": 16.6, "unit": "%"}, {"measurement": "viability, T/C", "setting": "second compound 1 µM, first compound 0.000316 µM", "value": 44, "unit": "%"}, {"measurement": "viability, T/C", "setting": "second compound 1 µM, first compound 0.001 µM", "value": 36.4, "unit": "%"}, {"measurement": "viability, T/C", "setting": "second compound 1 µM, first compound 0.00316 µM", "value": 26.1, "unit": "%"}, {"measurement": "viability, T/C", "setting": "second compound 1 µM, first compound 0.01 µM", "value": 19.3, "unit": "%"}, {"measurement": "viability, T/C", "setting": "second compound 1 µM, first compound 0.0316 µM", "value": 17.4, "unit": "%"}, {"measurement": "viability, T/C", "setting": "second compound 1 µM, first compound 0.1 µM", "value": 14.5, "unit": "%"}, {"measurement": "viability, T/C", "setting": "second compound 3.16 µM, first compound 0.000316 µM", "value": 32.3, "unit": "%"}, {"measurement": "viability, T/C", "setting": "second compound 3.16 µM, first compound 0.001 µM", "value": 28.3, "unit": "%"}, {"measurement": "viability, T/C", "setting": "second compound 3.16 µM, first compound 0.00316 µM", "value": 23.7, "unit": "%"}, {"measurement": "viability, T/C", "setting": "second compound 3.16 µM, first compound 0.01 µM", "value": 16.6, "unit": "%"}, {"measurement": "viability, T/C", "setting": "second compound 3.16 µM, first compound 0.0316 µM", "value": 14.9, "unit": "%"}, {"measurement": "viability, T/C", "setting": "second compound 3.16 µM, first compound 0.1 µM", "value": 12.5, "unit": "%"}, {"measurement": "viability, T/C", "setting": "second compound 10 µM, first compound 0.000316 µM", "value": 27.2, "unit": "%"}, {"measurement": "viability, T/C", "setting": "second compound 10 µM, first compound 0.001 µM", "value": 27.8, "unit": "%"}, {"measurement": "viability, T/C", "setting": "second compound 10 µM, first compound 0.00316 µM", "value": 20.1, "unit": "%"}, {"measurement": "viability, T/C", "setting": "second compound 10 µM, first compound 0.01 µM", "value": 17, "unit": "%"}, {"measurement": "viability, T/C", "setting": "second compound 10 µM, first compound 0.0316 µM", "value": 12.8, "unit": "%"}, {"measurement": "viability, T/C", "setting": "second compound 10 µM, first compound 0.1 µM", "value": 11.3, "unit": "%"}]}]}
